Article PMC7360964, “Auto‐inhibition of Mif2/CENP‐C ensures centromere‐dependent kinetochore assembly in budding yeast” (The EMBO Journal, 2020)
Where no end group is shown, it is not given here.

Biological target: T1, MN (Saccharomyces cerevisiae, UniProt P39731+P47149)
T1 construct: made in house; host or cells: E. coli BL21 (DE3)
T1 sequence (P39731 1-289): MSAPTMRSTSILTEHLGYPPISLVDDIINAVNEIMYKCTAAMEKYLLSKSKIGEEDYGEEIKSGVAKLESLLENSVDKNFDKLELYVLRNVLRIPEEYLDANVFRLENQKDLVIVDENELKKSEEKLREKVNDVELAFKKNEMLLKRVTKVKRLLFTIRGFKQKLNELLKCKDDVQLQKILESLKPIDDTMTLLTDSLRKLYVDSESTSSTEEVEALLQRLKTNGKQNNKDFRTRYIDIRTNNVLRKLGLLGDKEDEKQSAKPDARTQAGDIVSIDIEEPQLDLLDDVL
T1 sequence (P47149 1-201): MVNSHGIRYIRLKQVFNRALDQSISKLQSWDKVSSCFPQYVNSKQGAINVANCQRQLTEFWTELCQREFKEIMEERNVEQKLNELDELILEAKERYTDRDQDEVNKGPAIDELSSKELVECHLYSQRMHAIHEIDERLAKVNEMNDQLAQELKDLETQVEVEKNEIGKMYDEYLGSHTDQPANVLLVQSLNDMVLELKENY
Experiment: Isothermal titration calorimetry (ITC) with MN
Format: binding, budding yeast (S. cerevisiae)
Conditions: summary of FP and ITC assays
Excerpt: Figure 5 The Mif2 N‐terminus is prevented from high‐affinity Mtw1c binding in the full‐length molecule • Co‐purification of Strep‐Mtw1c through Flag‐Mif2 after co‐expression in insect cells. Proteins were detected by Western blotting using their respective tags. • Western blotting of elution fractions from an SEC experiment of Mif2‐wt or Mif2^Ame1‐N swap in the absence (upper panel) or presence (lower panel) of Mtw1c. • ITC analysis of Mif2^1‐41 or Ame1^1‐20 binding to MN. Experiments were performed 3 or 4 times, respectively. One representative binding curve is shown, whereas the KD value represents the average of all experiments. • Cross‐link (XL) MS analysis of the Mif2wt protein in isolation or bound to Cse4n using the cross‐linker Bis[sulfosuccinimidyl] glutarate. Mif2wt alone or in combination with Cse4n was subjected to analytical size‐exclusion chromatography at 10 μM concentration. The corresponding Coomassie‐stained SDS–PAGE gels of Mif2‐wt alone or in combination with Cse4n are shown. Fractions used for cross‐linking are highlighted. […]
The binding constant of Ame1 could only be indirectly measured in the FP competition assay, as labeling of Ame1 N‐terminal peptides rendered them insoluble. We therefore directly determined binding affinities of Mif2 and Ame1 N‐terminal peptides to MN using isothermal titration calorimetry (ITC). […]

- dissociation constants for Mtw1 constructs: low micromolar range
Sequence: MDYMKLGLKSRKTGIDVKQDIPKDEYSMENIDDFFKDDETS [Mif2^1‐41]
